Patent US12679878B2, “CRF2 receptor agonists and their use in therapy” (SANOFI, priority 2020, dated 2026)
Read-outs that look alike come from different tables or passages of the source. Starred links: 1 amine or outer side, 2 acyl side, 3 side chain; linkers in the order of their positions; H or OH if unused. Non-standard residues stand in square brackets, D forms with d. Residues, ends and D or L forms follow the SMILES beside them. Groups on a side chain read outwards from the residue. *: point of attachment. C20 diacid = O=C(O)CCCCCCCCCCCCCCCCCCC(=O)*; C18 diacid = O=C(O)CCCCCCCCCCCCCCCCC(=O)*; C16 diacid = O=C(O)CCCCCCCCCCCCCCC(=O)*; γGlu = O=C(O)[C@H](CCC(=O)[*:2])N[*:1]; Palmitoyl = CCCCCCCCCCCCCCCC(=O)*; AEEA = NCCOCCOCC(=O)O; Aib = CC(C)(N)C(=O)O

Tests used:
CRF1R receptor = target: T1, CRF1R receptor (Homo sapiens, UniProt P34998); experiment: cAMP activity at anti-target CRF1R, CHO-K1 cell line clone 2 (Example 19.10); type: cell-based; conditions: 100% = Sauvagine at 100 nM; CRF1R CHO-K1 clone 2
T1 construct: host or cells: CHO-K1 clone 2
T1 sequence (P34998 24-415): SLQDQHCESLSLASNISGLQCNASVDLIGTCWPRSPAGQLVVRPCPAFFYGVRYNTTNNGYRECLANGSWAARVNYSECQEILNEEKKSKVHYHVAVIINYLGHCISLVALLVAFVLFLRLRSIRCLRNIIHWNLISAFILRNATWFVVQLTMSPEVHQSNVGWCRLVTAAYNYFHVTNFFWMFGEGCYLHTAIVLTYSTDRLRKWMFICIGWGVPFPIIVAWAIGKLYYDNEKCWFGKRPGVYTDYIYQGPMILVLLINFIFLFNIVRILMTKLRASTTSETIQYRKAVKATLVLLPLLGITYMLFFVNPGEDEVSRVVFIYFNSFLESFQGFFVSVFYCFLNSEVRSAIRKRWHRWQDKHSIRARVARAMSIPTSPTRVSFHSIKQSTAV
Description: The CRF1R-overexpression CHO-K1 cell line clone 2 was purchased from PerkinElmer.
Cells were grown in a 10 cm dish at 37° C./5% CO2 in medium (F12 (Hams)/10% FBS/400 μg/ml G418) to near confluence. At that stage, cells were harvested, resuspended to 10 million/mL in culture medium without G418 and with 10% DMSO. 1 mL vial aliquots were slowly frozen to -80° C. in isopropanol and then transferred in liquid nitrogen for storage. These vials were used to run the experiment following the procedure reported 10 in the previous paragraph, except for the compound used in the control well to define the 100% activation (Sauvagine at 100 nM)

human CRF2α receptor = target: T2, human CRF2α receptor (Homo sapiens, UniProt Q13324); experiment: cAMP agonism at human CRF2 α receptor in TeloHEAC cells (Example 7); type: cell-based; conditions: cAMP HTRF, TeloHEAC cells stably expressing human CRF2 α
T2 construct: expressed in transfected cells; host or cells: TeloHEAC
T2 sequence (Q13324 1-411): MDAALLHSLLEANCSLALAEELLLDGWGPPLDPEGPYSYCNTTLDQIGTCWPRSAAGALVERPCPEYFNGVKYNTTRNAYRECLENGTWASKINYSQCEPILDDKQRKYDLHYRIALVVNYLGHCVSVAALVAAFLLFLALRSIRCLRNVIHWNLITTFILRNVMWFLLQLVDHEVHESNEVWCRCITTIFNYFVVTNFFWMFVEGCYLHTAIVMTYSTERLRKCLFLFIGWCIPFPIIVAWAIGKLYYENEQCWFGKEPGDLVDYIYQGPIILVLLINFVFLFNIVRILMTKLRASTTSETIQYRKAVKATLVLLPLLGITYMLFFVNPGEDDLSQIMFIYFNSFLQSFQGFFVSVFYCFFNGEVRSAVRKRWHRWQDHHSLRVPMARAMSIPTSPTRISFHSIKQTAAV
Outline: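 Percent activation was referenced to 1000 nM UCN2 (100%), and EC50 values taken as concentrations giving half of maximal response. The read-out was a homogeneous time-resolved fluorescence cAMP kit, fluorescence ratio 665/620 nm. Thawed cells (2000/well) saw compound for 30 min at RT in buffer with 2 mM IBMX and 0%/0.1% HSA.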

SMILES | Emax (CRF1R receptor) [%] | EC50 (human CRF2α receptor; 0% HSA, read-out: EC50 [nM], 0% HSA) [nM] | EC50 (human CRF2α receptor; 0.1% HSA, read-out: EC50 [nM], 0.1% HSA) [nM]
CC[C@H](C)[C@H](N)C(=O)N[C@H](C(=O)N[C@@H](CC(C)C)C(=O)N[C@@H](CO)C(=O)N[C@@H](CC(C)C)C(=O)N[C@@H](CC(=O)O)C(=O)N[C@@H](C(=O)N1CCC[C@H]1C(=O)N[C@H](C(=O)N[C@@H](CCCCN)C(=O)N[C@@H](CC(C)C)C(=O)N[C@@H](CCCCNC(=O)CC[C@H](NC(=O)CCCCCCCCCCCCCCC(=O)O)C(=O)O)C(=O)N[C@@H](CCC(N)=O)C(=O)N[C@@H](CCCCN)C(=O)N[C@@H](CC(C)C)C(=O)N[C@@H](CC(C)C)C(=O)N[C@@H](CCCCN)C(=O)N[C@@H](CCC(N)=O)C(=O)N[C@@H](CCC(=O)O)C(=O)N[C@@H](CCCNC(=N)N)C(=O)N[C@@H](CCC(N)=O)C(=O)N[C@@H](CCCNC(=N)N)C(=O)N[C@@H](CCCCN)C(=O)N[C@@H](CCC(=O)O)C(=O)N[C@@H](CCCNC(=N)N)C(=O)N[C@@H](CCC(=O)O)C(=O)N[C@@H](CCC(N)=O)C(=O)N[C@@H](C)C(=O)N[C@@H](CCC(=O)O)C(=O)N[C@@H](CCCCN)C(=O)N[C@@H](CC(N)=O)C(=O)N[C@H](C(=O)N[C@@H](CCCNC(=N)N)C(=O)N[C@H](C(=O)N[C@@H](CC(C)C)C(=O)N[C@@H](CCC(=O)O)C(=O)N[C@@H](CCCNC(=N)N)C(=O)N[C@H](C(N)=O)C(C)C)[C@@H](C)CC)C(C)C)[C@@H](C)O)C(C)C)C(C)C [SEQ ID NO: 222] (H-IVLSLD[dV]PTKLK([γGlu-C16 diacid])QKLLKQERQRKEREQAEKNVRILERV-NH2; N-terminus assumed) | 6.2 |  | 
CC[C@H](C)[C@H](N)C(=O)N[C@H](C(=O)N[C@@H](CC(C)C)C(=O)N[C@@H](CO)C(=O)N[C@@H](CC(C)C)C(=O)N[C@@H](CC(=O)O)C(=O)N[C@@H](C(=O)N1CCC[C@H]1C(=O)N[C@H](C(=O)N[C@@H](CCCCN)C(=O)N[C@@H](CC(C)C)C(=O)N[C@@H](CCCCNC(=O)COCCOCCNC(=O)COCCOCCNC(=O)CC[C@H](NC(=O)CCCCCCCCCCCCCCCCCCC(=O)O)C(=O)O)C(=O)N[C@@H](CCCCN)C(=O)N[C@@H](CCCCN)C(=O)N[C@@H](CC(C)C)C(=O)N[C@@H](CC(C)C)C(=O)N[C@@H](CCCCN)C(=O)N[C@@H](CCC(N)=O)C(=O)N[C@@H](CCC(=O)O)C(=O)N[C@@H](CCCNC(=N)N)C(=O)N[C@@H](CCCCN)C(=O)N[C@@H](CCCNC(=N)N)C(=O)NC(C)(C)C(=O)N[C@@H](CCC(=O)O)C(=O)N[C@@H](CCCNC(=N)N)C(=O)N[C@@H](CCC(=O)O)C(=O)N[C@@H](CCCCN)C(=O)N[C@@H](C)C(=O)N[C@@H](CCC(=O)O)C(=O)N[C@@H](CCCCN)C(=O)N[C@@H](C)C(=O)N[C@@H](C)C(=O)N[C@@H](CCCNC(=N)N)C(=O)N[C@H](C(=O)N[C@@H](CC(C)C)C(=O)N[C@@H](CCC(=O)O)C(=O)N[C@@H](CCCNC(=N)N)C(=O)N[C@H](C(N)=O)C(C)C)[C@@H](C)CC)[C@@H](C)O)C(C)C)C(C)C [SEQ ID NO: 224, IVLSLDvPTKLK*KKLLKQERKRAibEREKAEKAARILERV-NH2] (H-IVLSLD[dV]PTKLK([AEEA-AEEA-γGlu-C20 diacid])KKLLKQERKR[Aib]EREKAEKAARILERV-NH2; N-terminus assumed) | 52.6 |  | 

Next, values leading:

Emax (CRF1R receptor) [%] | EC50 (human CRF2α receptor; 0% HSA, read-out: EC50 [nM], 0% HSA) [nM] | EC50 (human CRF2α receptor; 0.1% HSA, read-out: EC50 [nM], 0.1% HSA) [nM] | SMILES
57.3 |  |  | CCCCCCCCCCCCCCCC(=O)N[C@@H](CCC(=O)NCCCC[C@H](NC(=O)[C@H](CC(C)C)NC(=O)[C@H](CCCCN)NC(=O)[C@@H](NC(=O)[C@@H]1CCCN1C(=O)[C@H](NC(=O)[C@H](CC(=O)O)NC(=O)[C@H](CC(C)C)NC(=O)[C@H](CO)NC(=O)[C@H](CC(C)C)NC(=O)[C@@H](NC(=O)[C@@H](N)[C@@H](C)CC)C(C)C)C(C)C)[C@@H](C)O)C(=O)N[C@@H](CCC(N)=O)C(=O)N[C@@H](CCCCN)C(=O)N[C@@H](CC(C)C)C(=O)N[C@@H](CC(C)C)C(=O)N[C@@H](CCCCN)C(=O)N[C@@H](CCC(N)=O)C(=O)N[C@@H](CCC(=O)O)C(=O)N[C@@H](CCCNC(=N)N)C(=O)N[C@@H](CCC(N)=O)C(=O)N[C@@H](CCCNC(=N)N)C(=O)N[C@@H](CCCCN)C(=O)N[C@@H](CCC(=O)O)C(=O)N[C@@H](CCCNC(=N)N)C(=O)N[C@@H](CCC(=O)O)C(=O)N[C@@H](CCC(N)=O)C(=O)N[C@@H](C)C(=O)N[C@@H](CCC(=O)O)C(=O)N[C@@H](CCCCN)C(=O)N[C@@H](CC(N)=O)C(=O)N[C@@H](CCCCN)C(=O)N[C@@H](CCCNC(=N)N)C(=O)N[C@H](C(=O)N[C@@H](CC(C)C)C(=O)N[C@@H](CCC(=O)O)C(=O)N[C@@H](CCCNC(=N)N)C(=O)N[C@H](C(N)=O)C(C)C)[C@@H](C)CC)C(=O)O [SEQ ID NO: 223] (H-IVLSLD[dV]PTKLK([γGlu-Palmitoyl])QKLLKQERQRKEREQAEKNKRILERV-NH2; N-terminus assumed)
0.4 |  |  | CC[C@H](C)[C@H](N)C(=O)N[C@H](C(=O)N[C@@H](CC(C)C)C(=O)N[C@@H](CO)C(=O)N[C@@H](CC(C)C)C(=O)N[C@@H](CC(=O)O)C(=O)N[C@H](C(=O)N1CCC[C@H]1C(=O)N[C@H](C(=O)NCC(=O)N[C@@H](CC(C)C)C(=O)N[C@@H](CCCCNC(=O)COCCOCCNC(=O)COCCOCCNC(=O)CC[C@H](NC(=O)CCCCCCCCCCCCCCCCC(=O)O)C(=O)O)C(=O)N[C@@H](CCC(N)=O)C(=O)N[C@@H](CCCCN)C(=O)N[C@@H](CC(C)C)C(=O)N[C@@H](CC(C)C)C(=O)N[C@@H](CCCCN)C(=O)N[C@@H](CCC(N)=O)C(=O)N[C@@H](CCC(N)=O)C(=O)N[C@@H](CCCNC(=N)N)C(=O)N[C@@H](CCC(N)=O)C(=O)N[C@@H](CCCNC(=N)N)C(=O)N[C@@H](CCCCN)C(=O)N[C@@H](CCC(=O)O)C(=O)N[C@@H](CCCNC(=N)N)C(=O)N[C@@H](CCC(N)=O)C(=O)N[C@@H](CCC(N)=O)C(=O)N[C@@H](C)C(=O)N[C@@H](CCC(=O)O)C(=O)N[C@@H](CCCCN)C(=O)N[C@@H](CC(N)=O)C(=O)N[C@@H](C)C(=O)N[C@@H](CCCNC(=N)N)C(=O)N[C@H](C(=O)N[C@@H](CC(C)C)C(=O)N[C@@H](C)C(=O)N[C@@H](CCCNC(=N)N)C(=O)N[C@H](C(N)=O)C(C)C)[C@@H](C)CC)[C@@H](C)CC)C(C)C)C(C)C [compound 16] (H-IVLSLDVPIGLK([AEEA-AEEA-γGlu-C18 diacid])QKLLKQQRQRKERQQAEKNARILARV-NH2)
 | 1.18 | 15.3 | CC[C@H](C)[C@H](N)C(=O)N[C@H](C(=O)N[C@@H](CC(C)C)C(=O)N[C@@H](CO)C(=O)N[C@@H](CC(C)C)C(=O)N[C@@H](CC(=O)O)C(=O)N[C@@H](C(=O)N1CCC[C@H]1C(=O)N[C@H](C(=O)N[C@@H](CCCCN)C(=O)N[C@@H](CC(C)C)C(=O)N[C@@H](CCCCNC(=O)CC[C@H](NC(=O)CCCCCCCCCCCCCCCCC(=O)O)C(=O)O)C(=O)N[C@@H](CCC(N)=O)C(=O)N[C@H](C(=O)N[C@@H](CC(C)C)C(=O)N[C@@H](CC(C)C)C(=O)N[C@@H](CCCCN)C(=O)N[C@@H](CCC(N)=O)C(=O)N[C@@H](CCC(=O)O)C(=O)N[C@@H](CCCNC(=N)N)C(=O)N[C@@H](CCC(N)=O)C(=O)N[C@@H](CCCCN)C(=O)N[C@@H](CCCCN)C(=O)N[C@@H](CCC(N)=O)C(=O)N[C@@H](CCCNC(=N)N)C(=O)N[C@@H](CCC(N)=O)C(=O)N[C@@H](CCC(N)=O)C(=O)N[C@@H](C)C(=O)N[C@@H](CCC(=O)O)C(=O)N[C@@H](CCCCN)C(=O)N[C@@H](CC(N)=O)C(=O)N[C@@H](CCCCN)C(=O)N[C@@H](CCC(N)=O)C(=O)N[C@H](C(=O)N[C@@H](CC(C)C)C(=O)N[C@@H](C)C(=O)N[C@@H](CCC(N)=O)C(=O)N[C@H](C(N)=O)C(C)C)[C@@H](C)CC)[C@@H](C)CC)[C@@H](C)CC)C(C)C)C(C)C [compound 181] (H-IVLSLD[dV]PIKLK([γGlu-C18 diacid])QILLKQERQKKQRQQAEKNKQILAQV-NH2; N-terminus assumed)
